Experiment: Remineralization of enamel subsurface lesions (transverse microradiography and densitometric image analysis)
Design: species or system Human
Settings: 1% v/v sodium hypochlorite for 1 min at start of CPP-ACP remineralization, versus CPP-ACP alone
Method: Human tooth enamel demineralized subsurface lesions were prepared using the method of Reynolds, (1997). J Dent Res 76:1587-1595. The enamel surface was removed by polishing to remove all adsorbed protein. This removed around 50-100 μm of enamel to expose an uncoated, polished enamel surface for the study. […] A 1% w/v CPP-ACP pH 5.0 solution was prepared using Recaldent® [Kraft Foods], a commercial source of CPP-ACP that is prepared as per Example 1 at a pH of 5.0. All blocks were remineralized with the 1% CPP-ACP pH 5 solution for 7 days at 37° C. However, half were exposed to a 1% v/v sodium hypochlorite solution for 1 min at the start of the CPP-ACP remineralization period. In other words, the sodium hypochlorite and CPP-ACP were simultaneously exposed to the subsurface lesion. After remineralization the enamel blocks were embedded, sectioned and subjected to transverse microradiography and densitometric image analysis as previously described by Reynolds (1997) to determine percent mineral content gain (% Remineralization) shown in Table 3.

Q: With `OCl` [hypochlorite, sodium hypochlorite] as the molecule, how does the “increase of the level of remineralization by the CPP-ACP solution” value read?
A: 31%

Source: patent US12128068B2, “Compositions and methods for dental mineralization” (The University of Melbourne, priority 2013, dated 2024)
